PMC11035632, “Discovery of gefitinib-1,2,3-triazole derivatives against lung cancer via inducing apoptosis and inhibiting the colony formation” (Scientific Reports, 2024)

Key:
NCI-H1299 cells = assay: CCK-8 assay for cell proliferation and cytotoxicity, NCI-H1299; format: cell-based; conditions: Homo sapiens, CCK-8, 48 h
Description: (§1) Three types of lung cells were seeded into 96-well plate at a density of 5 × 10^3 cells per well at logarithmic growth phase and cultured in 37 °C. […] After that, cell viability was determined according to the instruction of the CCK-8 assay. Next, 10 μL of CCK-8 solution was added to each well of the plate and incubate the plate for 1–4 h in the incubator. The absorbance was measured at 450 nm using a microplate reader (Bio-Tek). The percentage of viable cells was measured using the following formula where three independent experiments were performed: [(A450 sample − A450blank)/(A450 control − A450blank)] × 100%.

A549 cells = assay: CCK-8 assay for cell proliferation and cytotoxicity, A549; format: cell-based; conditions: Homo sapiens, CCK-8, 48 h
Description: A549 cells were cultured in a humidified incubator at 37 °C with 5% CO2 in Ham’s F-12 K (PM150910, Procell) supplemented with 10% FBS and 1% Penicillin Streptomycin.
as §1

NCI-H1437 cells = assay: CCK-8 assay for cell proliferation and cytotoxicity, NCI-H1437; format: cell-based; conditions: Homo sapiens, CCK-8, 48 h, read-out: IC50 1437
Description: as §1

H1299 cells = assay: Transwell migration assay; format: cell-based, human; conditions: H1299, 2, 4 and 8 μmol/L, 24 h, vs normal control, p < 0.01
Description: Transwell chamber migration assay is another important method to assess cell migration ability. Tumor cells are seeded in the chamber, and the number of tumor cells that pass through the membrane is counted to evaluate the migration ability of tumor cells.
Transwell assay was used to determine the migration ability of H1299 cells. Cells were starved in serum-free RPMI 1640 medium for 24 h, then detached and resuspended in serum-free RPMI 1640 medium. 5 × 10^5 cells/mL were inoculated into the upper chamber of a 24-well Transwell plate (Corning Inc., United States), with a volume of 100 µl per well. Then, 100 µL serum-free medium containing 7a or 7j (2, 4 and 8 μmol/L) was added to the upper chamber and the lower chamber was filled with 700 µL medium containing 20% FBS. After incubation for 24 h, H1299 cells on the upper membrane of the transwell were wiped off. The migrated cells were treated with 4% paraformaldehyde for 20 min, stained with 0.1% crystal violet for 20 min and washed three times with PBS. The number of H1299 cells that migrated to the underside of the membrane was counted under the inverted fluorescence microscope. Three randomly selected areas from each transwell were photographed and calculated using Image J.

## COc1cc2ncnc(Nc3cccc(-c4cn(Cc5cc(F)ccc5Br)nn4)c3)c2cc1OCCCN1CCOCC1 [Compound 7a]
NCI-H1299 cells
  IC50: 3.94 ± 0.17 µM
A549 cells
  IC50: 3.16 ± 0.11 µM
NCI-H1437 cells
  IC50: 1.83 ± 0.13 µM
H1299 cells
  number of cells passing through the membrane to the lower surface of the chamber: significantly decreased
